The assay concerns the target T1, h5-HT4b (Homo sapiens, UniProt Q13639).
T1 construct: expressed in transfected cells; host or cells: HEK 293 (clone 9), membrane preparation
Briefly: 5HT4 antagonism: [3H]GR113808 binding to membranes of h5-HT4b-HEK 293 clone 9 cells. The note with it: displacement of [3H]GR113808 0.1 nM, h5-HT4b-HEK 293 membranes, 30 min at 25° C.; read-out: pIC50 (5HT4 antagonistic data) (converted). The method, then:
h5-HT4b-HEK 293 clone 9 cells were cultured in 150 mm Petri dishes and washed twice with cold PBS. The cells were then scraped from the plates and suspended in 50 mM Tris-HCl buffer, pH 7.4 and harvested by centrifugation at 23,500 rpm for 10 minutes. The pellet was resuspended in 5 mM Tris-HCl, pH 7.4 and homogenized with an Ultra Turrax homogenizer. The membranes were collected by centrifugation at 30,000 rpm for 20 min, resuspended in 50 mM Tris-HCl pH 7.4 and stored at −80° C. For the experiment, assay mixtures (0.5 ml) contained 50 μl of the tritiated ligand (5-HT4 antagonist [^3H]GR113808 0.1 nM) and 0.4 ml membrane preparation (15 μg protein/ml). 50 μl of 10% DMSO was added for total binding. 50 μl of 1 μM of (+)-trans-(1-butyl-3-hydroxy-4-piperidinyl)methyl 8-amino-7-chloro-2,3-dihydro-1,4-benzodioxin-5-carboxylate (a proprietary 5HT4 agonist of Janssen Pharmaceutica) was added for determination of non-specific binding.
The [^3H]GR113808 assay buffer was 50 mM HEPES-NaOH, pH 7.4. The mixtures were incubated for 30 min at 25° C. The incubation was terminated by filtration over a Unifilter 96 GF/B presoaked in 0.1% polyethylenimine, followed by six washing steps with 50 mM HEPES-NaOH, pH 7.4.
(In general: Loss of bound radioactivity is the signal in a displacement assay; it reports binding, not function.)

T1 sequence (Q13639 whole entry): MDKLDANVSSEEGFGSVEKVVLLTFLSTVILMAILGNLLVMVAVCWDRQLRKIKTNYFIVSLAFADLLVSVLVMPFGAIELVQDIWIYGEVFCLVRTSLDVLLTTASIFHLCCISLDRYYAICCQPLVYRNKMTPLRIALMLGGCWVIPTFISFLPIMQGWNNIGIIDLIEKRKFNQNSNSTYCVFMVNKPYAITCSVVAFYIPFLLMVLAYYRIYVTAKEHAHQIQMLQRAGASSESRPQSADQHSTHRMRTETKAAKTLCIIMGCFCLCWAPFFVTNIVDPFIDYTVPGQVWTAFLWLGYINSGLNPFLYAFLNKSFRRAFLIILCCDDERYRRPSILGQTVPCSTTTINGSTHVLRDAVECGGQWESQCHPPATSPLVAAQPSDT

Turning to `Nc1cc(C(=O)NC[C@@H]2CCN(Cc3ccc(F)cc3)C[C@H]2O)c2c(c1Cl)OCCO2` [compound 64], the IC50 is 15.5 nM.
Take `Nc1cc(C(=O)NC[C@@H]2CCN(CCCOC3CCCCC3)C[C@H]2O)c2c(c1Cl)OCCCO2` [compound 65]: the IC50 was 3.55 nM.
The same measure for `Nc1cc(C(=O)NC[C@@H]2CCN(CCCC(=O)O)C[C@H]2O)c2c(c1Cl)OCCCO2` [compound 66]: 282 nM; for `CNc1cc2c(c(C(=O)NC[C@@H]3CCN(CCOCCO)C[C@H]3O)c1)OCCCO2` [compound 67]: 479 nM.
On to `Nc1cc2c(c(C(=O)NC[C@@H]3CCN(CCOCCO)C[C@H]3O)c1)OCCCO2` [compound 69], for which the IC50 is 490 nM.
On to `Nc1cc(C(=O)NC[C@@H]2CCN(CCOCCO)C[C@H]2O)c2c(c1Cl)OCCO2` [compound 70], for which the IC50 was 89.1 nM.
Regarding `Nc1cc(C(=O)NC[C@@H]2CCN(CCOCCO)C[C@H]2O)c2c(c1Cl)OCCCO2` [compound 72], the IC50 was 83.2 nM.
The same measure for `Nc1cc2c(c(C(=O)NC[C@@H]3CCN(CCCCO)C[C@H]3O)c1)OCCCO2` [compound 73]: 55 nM; for `CNc1cc2c(c(C(=O)NC[C@@H]3CCN(Cc4ccc(F)cc4)C[C@H]3O)c1)OCCCO2` [compound 74]: 214 nM.
For the compound `CS(=O)(=O)NCCN1CC[C@@H](CNC(=O)c2cc(N)c(Cl)c3c2OCCCO3)[C@H](O)C1` [compound 75], the IC50 was 30.9 nM.
As for `CC1(CCCN2CC[C@@H](CNC(=O)c3cc(N)c(Cl)c4c3OCCCO4)[C@H](O)C2)OCCO1` [compound 76], the IC50 is 22.9 nM.
Turning to `CNc1cc2c(c(C(=O)NC[C@@H]3CCN(CCCC(C)=O)C[C@H]3O)c1)OCCCO2` [compound 77], the IC50 was 69.2 nM.
With `Nc1cc(C(=O)NC[C@@H]2CCN(Cc3ccc(F)cc3)C[C@H]2O)c2c(c1Cl)OCCCO2` [compound 78], the IC50 was 9.33 nM.
As to `COCCN1CC[C@@H](CNC(=O)c2cc(N)c(Cl)c3c2OCCCO3)[C@H](O)C1` [compound 79], the IC50 was 39.8 nM.
`CC(=O)CCCN1CC[C@@H](CNC(=O)c2cc(N)c(Cl)c3c2OCCCO3)[C@H](O)C1` [compound 80]: the IC50 is 7.59 nM.
Regarding `CNCCCN1CC[C@@H](CNC(=O)c2cc(NC)cc3c2OCCCO3)[C@H](O)C1` [compound 81], the IC50 was 1150 nM.
For the compound `N#CCN1CC[C@@H](CNC(=O)c2cc(N)c(Cl)c3c2OCCCO3)[C@H](O)C1` [compound 82], the IC50 is 6170 nM.
`CC(=O)CCCN1CC[C@@H](CNC(=O)c2cc(N)cc3c2OCCO3)[C@H](O)C1` [compound 83]: the IC50 was 14.8 nM.
On to `CNc1cc2c(c(C(=O)NC[C@@H]3CCN(CCOCCO)C[C@H]3O)c1)OCCO2` [compound 84], for which the IC50 was 93.3 nM.
Take `Nc1cc2c(c(C(=O)NC[C@@H]3CCN(CCCOC4CCCCC4)C[C@H]3O)c1)OCCO2` [compound 85]: the IC50 is 6.31 nM.
With `Nc1cc2c(c(C(=O)NC[C@@H]3CCN(CCOCCO)C[C@H]3O)c1)OCCO2` [compound 86], the IC50 was 132 nM.
To `COc1cc2c(c(C(=O)NC[C@@H]3CCNC[C@H]3O)c1)OCCCO2` [compound 88] belongs 257 nM; to `CNCCCCN1CC[C@@H](CNC(=O)c2cc(N)c(Cl)c3c2OCCO3)[C@H](O)C1` [compound 89], 30.9 nM; to `CNCCCCN1CC[C@@H](CNC(=O)c2cc(NC)cc3c2OCCO3)[C@H](O)C1` [compound 90], 34.7 nM.
The same measure for `CNCCCCN1CC[C@@H](CNC(=O)c2cc(NC)cc3c2OCCCO3)[C@H](O)C1` [compound 91]: 229 nM.
Take `Cc1nccnc1NCCN1CC[C@@H](CNC(=O)c2cc(N)c(Cl)c3c2OCCCO3)[C@H](O)C1` [compound 92]: the IC50 is 12 nM.
On to `CC(C)OCCCN1CC[C@@H](CNC(=O)c2cc(N)c(Cl)c3c2OCCO3)[C@H](O)C1` [compound 93], for which the IC50 is 17 nM.
With `CNCCCCN1CC[C@@H](CNC(=O)c2cc(N)c(Cl)c3c2OCCCO3)[C@H](O)C1` [compound 94], the IC50 is 34.7 nM.
